Test results: PubChem BioAssay (NCI)
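Results reflect a 48-hour exposure of cells in 96-well plates to compound at five concentrations. GI50 marks 50% less growth. TGI marks complete inhibition of growth.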

Experiments:
Test in all cases: DTP human tumour cell line panel, 48 h
BT-549 breast = test system: BT-549 breast
DU-145 prostate = test system: DU-145 prostate
SK-OV-3 ovarian = test system: SK-OV-3 ovarian
HOP-92 NSCLC = test system: HOP-92 NSCLC
SK-MEL-28 melanoma = test system: SK-MEL-28 melanoma
NCI-H23 lung = test system: NCI-H23 lung
HOP-62 NSCLC = test system: HOP-62 NSCLC
M14 melanoma = test system: M14 melanoma
NCI-H522 lung = test system: NCI-H522 lung
MOLT-4 leukemia = test system: MOLT-4 leukemia
OVCAR-5 ovarian = test system: OVCAR-5 ovarian
UACC-257 melanoma = test system: UACC-257 melanoma
SK-MEL-2 melanoma = test system: SK-MEL-2 melanoma
SR leukemia = test system: SR leukemia
SK-MEL-5 melanoma = test system: SK-MEL-5 melanoma
IGROV1 ovarian = test system: IGROV1 ovarian
MALME-3M melanoma = test system: MALME-3M melanoma
MCF7 breast = test system: MCF7 breast
MDA-N = test system: MDA-N
UO-31 renal = test system: UO-31 renal
SF-268 CNS = test system: SF-268 CNS
EKVX NSCLC = test system: EKVX NSCLC
UACC-62 melanoma = test system: UACC-62 melanoma
HL-60(TB) leukemia = test system: HL-60(TB) leukemia
COLO 205 colon = test system: COLO 205 colon
HCT-15 colon = test system: HCT-15 colon
SNB-19 CNS = test system: SNB-19 CNS
NCI-H226 lung = test system: NCI-H226 lung
TK-10 renal = test system: TK-10 renal
A549 NSCLC = test system: A549 NSCLC
HS 578T breast = test system: HS 578T breast
PC-3 prostate = test system: PC-3 prostate
RPMI-8226 leukemia = test system: RPMI-8226 leukemia
SW-620 colon = test system: SW-620 colon
SF-295 CNS = test system: SF-295 CNS
HCC-2998 colon = test system: HCC-2998 colon
LOX IMVI melanoma = test system: LOX IMVI melanoma
RXF 393 renal = test system: RXF 393 renal
KM12 colon = test system: KM12 colon
OVCAR-4 ovarian = test system: OVCAR-4 ovarian
A498 renal = test system: A498 renal
CCRF-CEM leukemia = test system: CCRF-CEM leukemia
CAKI-1 renal = test system: CAKI-1 renal
MDA-MB-435 = test system: MDA-MB-435
K-562 leukemia = test system: K-562 leukemia
SNB-75 CNS = test system: SNB-75 CNS
MDA-MB-231 breast = test system: MDA-MB-231 breast
HT29 colon = test system: HT29 colon
SN12C renal = test system: SN12C renal
HCT-116 colon = test system: HCT-116 colon
NCI-H460 lung = test system: NCI-H460 lung
NCI/ADR-RES ovarian = test system: NCI/ADR-RES ovarian
786-0 renal = test system: 786-0 renal
U251 CNS = test system: U251 CNS
OVCAR-3 ovarian = test system: OVCAR-3 ovarian
T-47D breast = test system: T-47D breast
SF-539 CNS = test system: SF-539 CNS
ACHN renal = test system: ACHN renal
OVCAR-8 ovarian = test system: OVCAR-8 ovarian

SMILES: CC1(C)[C@H](O)CC[C@]2(C)C3=CC[C@@]4(C)[C@@H]5C[C@](C)(CO)CC[C@]5(C)CC[C@]4(C)C3=CC[C@@H]12
- TGI (BT-549 breast): > 100000 nM
- TGI (DU-145 prostate): > 100000 nM
- TGI (SK-OV-3 ovarian): > 100000 nM
- TGI (HOP-92 NSCLC): > 100000 nM
- TGI (SK-MEL-28 melanoma): > 100000 nM
- TGI (NCI-H23 lung): > 100000 nM
- TGI (HOP-62 NSCLC): > 100000 nM
- TGI (M14 melanoma): > 100000 nM
- TGI (NCI-H522 lung): > 100000 nM
- TGI (MOLT-4 leukemia): > 100000 nM
- TGI (OVCAR-5 ovarian): > 100000 nM
- TGI (UACC-257 melanoma): > 100000 nM
- TGI (SK-MEL-2 melanoma): > 100000 nM
- TGI (SR leukemia): 4720 nM
- TGI (SK-MEL-5 melanoma): > 100000 nM
- TGI (IGROV1 ovarian): > 100000 nM
- TGI (MALME-3M melanoma): > 100000 nM
- TGI (MCF7 breast): > 100000 nM
- TGI (MDA-N): > 100000 nM
- TGI (UO-31 renal): 3620 nM
- TGI (SF-268 CNS): > 100000 nM
- TGI (EKVX NSCLC): > 100000 nM
- TGI (UACC-62 melanoma): > 100000 nM
- TGI (HL-60(TB) leukemia): > 100000 nM
- TGI (COLO 205 colon): > 100000 nM

SMILES: N#CC1=C(N)Oc2c(sc3c(F)cccc23)C1c1ccc([N+](=O)[O-])cc1 (stereo unspecified)
- GI50 (HCT-15 colon): 68.2 nM
- TGI (HCT-15 colon): 1410 nM
- GI50 (BT-549 breast): 242 nM
- TGI (BT-549 breast): 1300 nM
- GI50 (DU-145 prostate): 340 nM
- TGI (DU-145 prostate): 1380 nM
- GI50 (SNB-19 CNS): 241 nM
- TGI (SNB-19 CNS): 1510 nM
- GI50 (SK-OV-3 ovarian): 308 nM
- TGI (SK-OV-3 ovarian): 2370 nM
- GI50 (NCI-H226 lung): 376 nM
- TGI (NCI-H226 lung): 1930 nM
- GI50 (HOP-92 NSCLC): 156 nM
- TGI (HOP-92 NSCLC): 1180 nM
- GI50 (SK-MEL-28 melanoma): 340 nM
- TGI (SK-MEL-28 melanoma): 1970 nM
- GI50 (TK-10 renal): 609 nM
- TGI (TK-10 renal): 3120 nM
- GI50 (NCI-H23 lung): 284 nM
- TGI (NCI-H23 lung): 1460 nM
- GI50 (A549 NSCLC): 214 nM
- TGI (A549 NSCLC): 2370 nM
- GI50 (HOP-62 NSCLC): 228 nM
- TGI (HOP-62 NSCLC): 1790 nM
- GI50 (HS 578T breast): 194 nM
- TGI (HS 578T breast): 808 nM
- GI50 (M14 melanoma): 111 nM
- TGI (M14 melanoma): 645 nM
- GI50 (NCI-H522 lung): 77.6 nM
- TGI (NCI-H522 lung): 725 nM
- GI50 (PC-3 prostate): 241 nM
- TGI (PC-3 prostate): 1710 nM
- GI50 (RPMI-8226 leukemia): 215 nM
- TGI (RPMI-8226 leukemia): 1450 nM
- GI50 (SW-620 colon): 72.3 nM
- TGI (SW-620 colon): 1420 nM
- GI50 (SF-295 CNS): 184 nM
- TGI (SF-295 CNS): 1110 nM
- GI50 (MOLT-4 leukemia): 132 nM
- TGI (MOLT-4 leukemia): 1460 nM
- GI50 (OVCAR-5 ovarian): 552 nM
- TGI (OVCAR-5 ovarian): 2260 nM
- GI50 (HCC-2998 colon): 307 nM
- TGI (HCC-2998 colon): 1460 nM
- GI50 (LOX IMVI melanoma): 133 nM
- TGI (LOX IMVI melanoma): 1090 nM
- GI50 (RXF 393 renal): 191 nM
- TGI (RXF 393 renal): 753 nM
- GI50 (KM12 colon): 141 nM
- TGI (KM12 colon): 1270 nM
- GI50 (UACC-257 melanoma): 863 nM
- TGI (UACC-257 melanoma): 2900 nM
- GI50 (SK-MEL-2 melanoma): 170 nM
- TGI (SK-MEL-2 melanoma): 1230 nM
- GI50 (OVCAR-4 ovarian): 312 nM
- TGI (OVCAR-4 ovarian): 1900 nM
- GI50 (A498 renal): 21.9 nM
- TGI (A498 renal): 691 nM
- GI50 (SR leukemia): 47.8 nM
- TGI (SR leukemia): 7420 nM
- GI50 (CCRF-CEM leukemia): 179 nM
- TGI (CCRF-CEM leukemia): 3230 nM
- GI50 (CAKI-1 renal): 249 nM
- TGI (CAKI-1 renal): 1660 nM
- GI50 (SK-MEL-5 melanoma): 165 nM
- TGI (SK-MEL-5 melanoma): 1240 nM
- GI50 (MDA-MB-435): 27.2 nM
- TGI (MDA-MB-435): 84.8 nM
- GI50 (IGROV1 ovarian): 152 nM
- TGI (IGROV1 ovarian): 1560 nM
- GI50 (K-562 leukemia): 49.4 nM
- TGI (K-562 leukemia): 1790 nM
- GI50 (SNB-75 CNS): 115 nM
- TGI (SNB-75 CNS): 445 nM
- GI50 (MDA-MB-231 breast): 215 nM
- TGI (MDA-MB-231 breast): 1210 nM
- GI50 (MALME-3M melanoma): 360 nM
- TGI (MALME-3M melanoma): 2170 nM
- GI50 (HT29 colon): 323 nM
- TGI (HT29 colon): 1470 nM
- GI50 (SN12C renal): 276 nM
- TGI (SN12C renal): 1310 nM
- GI50 (HCT-116 colon): 169 nM
- TGI (HCT-116 colon): 1330 nM
- GI50 (NCI-H460 lung): 253 nM
- TGI (NCI-H460 lung): 1170 nM
- GI50 (NCI/ADR-RES ovarian): 58.9 nM
- TGI (NCI/ADR-RES ovarian): 734 nM
- GI50 (MCF7 breast): 36.7 nM
- TGI (MCF7 breast): 1540 nM
- GI50 (786-0 renal): 337 nM
- TGI (786-0 renal): 1460 nM
- GI50 (U251 CNS): 153 nM
- TGI (U251 CNS): 1210 nM
- GI50 (OVCAR-3 ovarian): 185 nM
- TGI (OVCAR-3 ovarian): 1060 nM
- GI50 (T-47D breast): 254 nM
- TGI (T-47D breast): 2860 nM
- GI50 (UO-31 renal): 197 nM
- TGI (UO-31 renal): 1030 nM
- GI50 (SF-539 CNS): 188 nM
- TGI (SF-539 CNS): 524 nM
- GI50 (SF-268 CNS): 325 nM
- TGI (SF-268 CNS): 1930 nM
- GI50 (EKVX NSCLC): 432 nM
- TGI (EKVX NSCLC): 2630 nM
- GI50 (UACC-62 melanoma): 86.3 nM
- TGI (UACC-62 melanoma): 1330 nM
- GI50 (ACHN renal): 407 nM
- TGI (ACHN renal): 2310 nM
- GI50 (OVCAR-8 ovarian): 258 nM
- TGI (OVCAR-8 ovarian): 1780 nM
- GI50 (HL-60(TB) leukemia): 212 nM
- TGI (HL-60(TB) leukemia): 806 nM
- GI50 (COLO 205 colon): 279 nM
- TGI (COLO 205 colon): 1110 nM
